The values below are quoted from earlier work in US10398705B2, “Pharmaceutical tablet formulation for the veterinary medical sector, method of production and use thereof” (BOEHRINGER INGELHEIM VETMEDICA GMBH, priority 2012, dated 2019).

The conditions of the data set: known property; background description.

In the case of `COc1ccc(-c2nc3ccc(C4=NNC(=O)CC4C)cc3[nH]2)cc1` (racemic) [pimobendan, (RS)-6-[2-(4-methoxyphenyl)-1H-benzimidazol-5-yl]-5-methyl-4,5-dihydropyridazin-3(2H)-one], the solubility result is “poor and pH-dependent solubility”. With `CCOC(=O)[C@H](CCc1ccccc1)N[C@H]1CCc2ccccc2N(CC(=O)O)C1=O` (relative stereo) [benazepril, [S—(R*,R*J]-3-[[1-(ethoxycarbonyl)-3-phenylpropyl]amino]-2,3,4,5-tetrahydro-2-oxo-1H-1-benzazepin-1-acetic acid], the solubility result is given as “well water-soluble”.
